As a reminder, the Ki is a measure of affinity in units of concentration, obtained from inhibition or displacement. A higher Ki goes with a looser hold on the target. As usually defined, the Cmax is the highest concentration seen after dosing. As a reminder, the bioavailability is the share of a dose that reaches the circulation, judged against a reference dose that is usually intravenous. Read a low bioavailability as poor availability. By Tmax is commonly meant the time at which the peak concentration occurs. Broadly, the AUC is concentration integrated over time. Low readings indicate low exposure, high ones high exposure. The half-life is the time in which the quantity being followed falls by half. What is called clearance is the volume of plasma or blood freed of the substance per unit of time.

19 compounds from ChEMBL document CHEMBL1133054, “Noncovalent thrombin inhibitors incorporating an imidazolylethynyl P1” (Bioorg Med Chem Lett, 2000) can be followed below.

For one series, the target named is T1, Serine protease 1 (Bos taurus, UniProt P00760).
T1 sequence (P00760 whole entry): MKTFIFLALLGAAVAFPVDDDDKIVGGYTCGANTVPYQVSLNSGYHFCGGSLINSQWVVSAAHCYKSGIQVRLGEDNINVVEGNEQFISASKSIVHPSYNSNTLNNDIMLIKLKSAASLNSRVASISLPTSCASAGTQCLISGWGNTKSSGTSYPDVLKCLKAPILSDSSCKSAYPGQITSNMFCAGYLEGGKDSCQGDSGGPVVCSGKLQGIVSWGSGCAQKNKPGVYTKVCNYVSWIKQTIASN
The series is described as follows: Inhibitory activity against Bovine Trypsin.

The next series concerns the target Prothrombin (Homo sapiens, UniProt P00734). As to the kind of experiment: In vitro inhibition of human thrombin.
Series [1] is described as follows: Peak plasma concentration (Cmax) was determined. It is filed as ADME, organism-based. Particulars: rat.
Series [2] is described as follows: Bioavailability. Conditions: eutheria, in vivo. It is filed as ADME, organism-based.
The nature of series [3]: Maximum time (Tmax) required to reach Cmax in rats. It is filed as ADME, organism-based. Particulars: rat, in vivo.
The nature of series [4]: Area under curve at a dose of 10 mg/kg. It is filed as ADME, organism-based. On the set-up: dose 10 mg/kg. Particulars: in vivo.
Series [5] in a line: Half life (t1/2) was determined. The class given is ADME, organism-based. Particulars: rat, in vivo.
A short description of series [6]: Plasma Clearance was determined. It is filed as ADME, organism-based. Particulars: rat.
Series [7] is described as follows: Area under curve at a dose of 30 mg/kg. It is filed as ADME, organism-based. On the set-up: dose 30 mg/kg. Conditions: rat, in vivo.
A further series concerns Rattus norvegicus. As to the kind of experiment: Oral bioavailability. It is filed as ADME, organism-based. Conditions: in vivo.
Series [8] in a line: Area under curve (AUC) at a dose of […] mg/kg in rats. The class given is ADME, organism-based. Particulars: rat, in vivo, 30 mg/kg.
The nature of series [9]: Peak plasma concentration (Cmax) in rats. It is filed as ADME, organism-based. Conditions: rat.

Where only a bound is given, the exact number is not on record here.

In turn, `CN(C(=O)[C@H](Cc1ccc(C(=N)NN)cc1)NS(=O)(=O)c1ccc2ccccc2c1)C1CCCC1` showed an inhibitory constant (Ki) on Serine protease 1 of 33 µM.

`CS(=O)(=O)N[C@@H](C(=O)N1CCC[C@H]1C(=O)NCC#Cc1c[nH]cn1)C(c1ccccc1)c1ccccc1`: the Ki was found to be 0.0026 µM on Prothrombin and 14 µM on Serine protease 1.

On to `O=C(O)CN[C@H](CC1CCCCC1)C(=O)N1CCC[C@H]1C(=O)NCC#Cc1cnc[nH]1`, for which the affinity on Prothrombin, expressed as Ki, was 0.48 µM. Moreover, the concentration in series [1] peaked (Cmax) at 1600 nM.

`CC(C)(C)OC(=O)N[C@@H](C(=O)N1CCC[C@H]1C(=O)NCC#Cc1cnc[nH]1)C(C1CCCCC1)C1CCCCC1`: the values for the inhibition constant (Ki) on Prothrombin and on Serine protease 1 were 0.029 µM and 30 µM, respectively.

For `COC(=O)N[C@@H](C(=O)N1CCC[C@H]1C(=O)NCC#Cc1c[nH]cn1)C(c1ccccc1)c1ccccc1`, the bioavailability in series [2] was 58%. Also, the values for the Ki on Prothrombin and at Serine protease 1 were 0.014 µM and 24 µM, respectively. Besides, the Tmax in [3] was 1 h. Besides, the exposure (AUC) in series [4] amounted to 26 µM·h; in series [7] it was 46 µM·h. In series [1], this compound had a Cmax of 23600 nM. This compound displayed a half-life in series [5] of 0.667 h. Besides, the clearance in [6] amounted to 12.8 mL/min/kg.

Take `CC(C)(C)OC(=O)N[C@H](Cc1ccccc1)C(=O)N1CCC[C@H]1C(=O)NCC#Cc1cn[nH]c1`: at Prothrombin, the Ki turned out to be 5.4 µM.

At Prothrombin, `Cn1cncc1C#CCNC(=O)[C@@H]1CCCN1C(=O)[C@@H](Cc1ccccc1)NC(=O)OC(C)(C)C` displayed an inhibitory constant (Ki) of 5.5 µM.

On to `CC(C)(C)OC(=O)N[C@H](Cc1ccccc1)C(=O)N1CCC[C@H]1C(=O)NCC#Cc1ccc(N)nc1`, for which, at Prothrombin, the Ki was more than 20 µM.

Take `N[C@@H](C(=O)N1CCC[C@H]1C(=O)NCC#Cc1cnc[nH]1)C(c1ccccc1)c1ccccc1`: the Ki came to 0.012 µM on Prothrombin and 25 µM on Serine protease 1.

The compound `CC(C)(C)OC(=O)N[C@H](Cc1ccccc1)C(=O)N1CCC[C@H]1C(=O)NCC#Cc1ccncc1` came in with a Ki at Prothrombin of more than 20 µM.

At Prothrombin, `CC(=O)N[C@@H](C(=O)N1CCC[C@H]1C(=O)NCC#Cc1cnc[nH]1)C(c1ccccc1)c1ccccc1` registered an inhibition constant (Ki) of 0.208 µM. In series [1], this compound gave a Cmax of 1600 nM.

In the case of `NC1CCC(CNC(=O)[C@@H]2CCCN2C(=O)[C@H](NS(=O)(=O)Cc2ccccc2)C(c2ccccc2)c2ccccc2)CC1` (stereo not given in full), the F result in the series on Rattus norvegicus is given as “Oral bioavailability”.

In the case of `CC(C)(C)OC(=O)N[C@H](Cc1ccccc1)C(=O)N1CCC[C@H]1C(=O)NCC#Cc1cnc[nH]1`, the Ki at Prothrombin is 1.2 µM.

For `O=C(O)CN[C@@H](C(=O)N1CCC[C@H]1C(=O)NCC#Cc1cnc[nH]1)C(c1ccccc1)c1ccccc1`, the Ki on Prothrombin came out at 0.044 µM; on Serine protease 1, 47 µM. In addition, the Cmax in series [1] came to 1600 nM.

Take `NC1CCC(CNC(=O)[C@@H]2CCCN2C(=O)[C@H](N)C(c2ccccc2)c2ccccc2)CC1` (stereo not given in full): the F entry in the series on Rattus norvegicus is “Oral bioavailability”.

Turning to `COC(=O)N[C@@H](C(=O)N1CCC[C@H]1C(=O)NCC#Cc1c[nH]cn1)C(C1CCCCC1)C1CCCCC1`, the Ki came to 0.015 µM on Prothrombin and 30 µM at Serine protease 1.

In the case of `CC(C)(C)OC(=O)N[C@@H](C(=O)N1CCC[C@H]1C(=O)NCC#Cc1c[nH]cn1)C(c1ccccc1)c1ccccc1`, the exposure (AUC) in [8] was found to be 29 µM·h. In series [9], this compound registered a Cmax of 14600 nM. Also, the Tmax in series [3] is 1 h. For the same compound, the inhibition constant Ki on Serine protease 1 amounted to 50 µM.

Turning to `O=C(NCC#Cc1cnc[nH]1)[C@@H]1CCCN1C(=O)[C@H](NS(=O)(=O)Cc1ccccc1)C(c1ccccc1)c1ccccc1`, the results for the inhibition constant Ki on Prothrombin and at Serine protease 1 were 0.003 µM and 24 µM, respectively.

For `NS(=O)(=O)N[C@@H](C(=O)N1CCC[C@H]1C(=O)NCC#Cc1c[nH]cn1)C(c1ccccc1)c1ccccc1`, the Ki at Prothrombin was 0.0008 µM; at Serine protease 1 it was 18 µM.
